Measured values as given in ChEMBL document CHEMBL1201862, “PubChem BioAssay data set” (2004).
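All cell lines were grown in 96-well plates and treated with compound for 48 hours. GI50 marks 50% less growth.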 Calls of active or inactive are those of the source. Cut-off read from the data, not from the text of the source: active = GI50 up to about 1.1 µM and inactive = higher.

What was measured:
Assay in all cases: inhibition of tumour cell growth, NCI panel, 48 h
[1] = test system: CCRF-CEM
[2] = test system: UO-31
[3] = test system: Malme-3M
[4] = test system: HOP-62
[5] = test system: MOLT-4
[6] = test system: U-251
[7] = test system: NCI-H460
[8] = test system: SNB-75
[9] = test system: SF-295
[10] = test system: OVCAR-8
[11] = test system: COLO 205
[12] = test system: OVCAR-5
[13] = test system: NCI-H23
[14] = test system: ACHN
[15] = test system: CAKI-1
[16] = test system: NCI-H226

Measured: GI50

Clc1ccc(C2=NN(c3ccccc3)C3c4cc(Br)ccc4OCC23)cc1 (centres undefined)
inactive: [1] 61.9 µM | [2] > 100 µM | [3] 96.4 µM | [4] > 100 µM | [5] 40.9 µM | [6] 67.3 µM | [7] > 100 µM | [8] > 100 µM | [9] 86.3 µM | [10] > 100 µM | [11] > 100 µM | [12] > 100 µM | [13] 86.9 µM | [14] > 100 µM

N#CC(N)(C(=O)CCC(=O)Nc1cccc(Cl)c1)c1ccc(Cl)cc1 (centres undefined)
inactive: [1] > 100 µM | [2] > 100 µM | [3] > 100 µM | [4] > 100 µM | [5] > 100 µM | [6] > 100 µM | [7] > 100 µM | [8] > 100 µM | [9] > 100 µM | [15] > 100 µM | [10] > 100 µM | [11] > 100 µM | [13] > 100 µM | [14] > 100 µM | [16] > 100 µM

CCOP(=O)(OCC)C1CC(C)OC1=O (centres undefined)
inactive: [1] > 100 µM | [2] > 100 µM | [3] > 100 µM | [4] > 100 µM | [5] > 100 µM | [6] > 100 µM | [7] > 100 µM | [8] > 100 µM | [9] > 100 µM | [15] > 100 µM | [10] > 100 µM | [11] > 100 µM | [12] > 100 µM | [13] > 100 µM | [14] > 100 µM

CC1=NN(c2ccccc2)C(=O)C1=C1SCCCS1
inactive: [1] 11.7 µM | [2] 34.2 µM | [3] 41.8 µM | [4] 42.1 µM | [5] 16 µM | [6] 18.1 µM | [7] 35.2 µM | [8] > 100 µM | [9] 27.2 µM | [15] 15 µM | [10] 31.7 µM | [11] 15.9 µM | [12] 54 µM | [13] 29.2 µM | [14] > 100 µM | [16] 29.3 µM

O=c1c2cccc3cccc(c4n1CCN=4)c32
inactive: [1] 80.2 µM | [2] 41 µM | [3] > 100 µM | [4] 93.3 µM | [5] 30.3 µM | [6] > 100 µM | [7] 61.1 µM | [8] 76.9 µM | [9] > 100 µM | [15] 63.4 µM | [10] > 100 µM | [11] > 100 µM | [12] > 100 µM | [13] > 100 µM | [14] 56 µM | [16] 56.8 µM

O=S1(=O)NN=C(NCc2ccc(Cl)c(Cl)c2)c2ccccc21
inactive: [1] 9.16 µM | [2] > 100 µM | [3] > 100 µM | [5] 15.1 µM | [6] 30.2 µM | [7] 95.3 µM | [9] > 100 µM | [15] > 100 µM | [10] > 100 µM | [11] > 100 µM | [12] > 100 µM | [14] > 100 µM | [16] > 100 µM

Cn1c(=O)nc2n(-c3ccc(Cl)c(C(F)(F)F)c3)c3ccccc3nc-2c1=O
inactive: [1] 30.8 µM | [2] > 77.4 µM | [3] 15 µM | [4] 57.9 µM | [5] 36.7 µM | [6] 40.6 µM | [7] 30.2 µM | [8] 94 µM | [9] 44.2 µM | [15] 51.4 µM | [10] 24.9 µM | [11] 17.7 µM | [12] 74.3 µM | [13] 29.6 µM | [14] 27.7 µM | [16] > 53.7 µM

C[C@]12CCC3[C@@H](CCC45OC4C(=O)CC[C@]35C)C1Cc1cnn(-c3ccc(F)cc3)c1N2 (some centres undefined)
inactive: [1] 21.3 µM | [2] 87.9 µM | [3] > 100 µM | [4] 29.6 µM | [5] 22.9 µM | [6] 28.4 µM | [7] 28.6 µM | [8] 38.6 µM | [9] 39 µM | [10] 29.8 µM | [11] 40.5 µM | [13] 22.2 µM | [14] 33.6 µM | [16] 33.4 µM

CCC12CCCC(=O)N1C(CO)C(c1ccccc1)O2 (centres undefined)
inactive: [1] > 100 µM | [3] > 100 µM | [4] > 100 µM | [6] > 100 µM | [7] > 100 µM | [8] > 100 µM | [9] > 100 µM | [15] > 100 µM | [10] > 100 µM | [11] > 100 µM | [12] > 100 µM | [13] > 100 µM | [14] > 100 µM

CCCCCCCCCCCCN(O)C(=O)c1ccccc1
inactive: [1] 3.82 µM | [2] 24.3 µM | [3] 17.5 µM | [5] 6.44 µM | [6] 11.8 µM | [7] > 10 µM | [8] 22.9 µM | [9] 29.4 µM | [10] 18.9 µM | [12] 21.5 µM | [13] 14.9 µM | [14] 28.2 µM

O=C(N/N=C/c1cc(-c2ccccc2Cl)c(-c2ccccc2Cl)o1)c1ccncc1
inactive: [3] > 100 µM | [4] > 100 µM | [8] 81.7 µM | [9] > 100 µM | [15] > 100 µM | [11] > 100 µM | [12] > 100 µM | [13] > 100 µM | [14] > 100 µM | [16] > 100 µM

COc1ccc(CC2=NCCc3cc(OC)c(OC)cc32)cc1Br
inactive: [1] 12.4 µM | [2] 16.8 µM | [3] 22.8 µM | [4] 4.36 µM | [5] 6.18 µM | [6] 18.1 µM | [7] 6.19 µM | [9] 3.48 µM | [15] 12.1 µM | [10] 20.7 µM | [11] 14.6 µM | [12] 1.99 µM | [13] 8.69 µM | [14] 12.9 µM | [16] 4.38 µM

COC(=O)/C(Cl)=C1/CC1COCc1ccccc1 (centres undefined)
inactive: [1] 14 µM | [2] 28.8 µM | [3] 26.6 µM | [4] > 100 µM | [5] 19.8 µM | [7] 43.4 µM | [8] 47.8 µM | [9] 53.5 µM | [15] 22.6 µM | [10] 30.5 µM | [11] 21.2 µM | [12] 74.3 µM | [13] 31.5 µM | [14] 25.4 µM | [16] 32.3 µM

CC(=O)Nc1ccc(C2CC(c3ccc([N+](=O)[O-])cc3)=Nc3ccccc3[S+]2[O-])cc1 (centres undefined)
inactive: [1] 11.4 µM | [2] 16.7 µM | [3] > 10 µM | [4] 22.1 µM | [5] 12.6 µM | [7] 23.3 µM | [8] 16.9 µM | [9] 28.8 µM | [15] > 10 µM | [10] 30.5 µM | [11] 21.8 µM | [12] 50.6 µM | [13] 21.5 µM | [14] 20.6 µM | [16] 20.4 µM
